Results taken from PubChem BioAssay AID1259411 (Chemical Carcinogenesis Research Information System (CCRIS), 2018).
Activity calls are given as the source filed them. No rule for the calls is given here.

Test system: rodent carcinogenicity bioassays, tumor incidence
Assay: CCRIS carcinogenicity studies
Settings: Dose: 0, Dose: 0
Method in brief: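 NCI-built, expert-reviewed records of carcinogenicity and related test outcomes (mutagenicity, tumor promotion/inhibition) compiled from published and report sources, historical span 1985-2011, not updated.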

## CN(C)C(=O)Nc1cccc(C(F)(F)F)c1
Species: MOUSE, Strain/Sex: B6C3F1/FEMALE, Route: ORAL, 500, 1000 PPM IN DIET FOR 103 WK (STUDY DURATION: 103-105 WK), 500, 1000 PPM IN DIET FOR 103 WK (STUDY DURATION: 103-105 WK)
  carcinogen call: inactive; negative
Species: MOUSE, Strain/Sex: B6C3F1/FEMALE, Route: ORAL, 500, 1000 PPM IN DIET FOR 103 WK (STUDY DURATION: 103-105 WK), 500, 1000 PPM IN DIET FOR 103 WK (STUDY DURATION: 103-105 WK), Tumor Site: Type of Lesion: LIVER: HEPATOCELLULAR CARCINOMA OR ADENOMA
  carcinogen call: equivocal
Species: Mouse, Strain/Sex: CR CD-1/Female (60/Group), Route: Oral, 10, 500, 2000 ppm of 96.1% fluometuron in diet for 104 wk, study duration 104 wk, 10, 500, 2000 ppm of 96.1% fluometuron in diet for 104 wk, study duration 104 wk, Tumor Site: Type of Lesion: Lymphocytic lymphoma (highest dose only)
  carcinogen call: active; positive
Species: Mouse, Strain/Sex: CR CD-1/Male (60/Group), Route: Oral, 10, 500, 2000 ppm of 96.1% fluometuron in diet for 104 wk, study duration 104 wk, 10, 500, 2000 ppm of 96.1% fluometuron in diet for 104 wk, study duration 104 wk, Tumor Site: Type of Lesion: Lung: Primary pulmonary neoplasia
  carcinogen call: active; positive
Species: RAT, Strain/Sex: F344/FEMALE, Route: ORAL, 125, 250 PPM IN DIET FOR 103 WK (STUDY DURATION: 103-105 WK), 125, 250 PPM IN DIET FOR 103 WK (STUDY DURATION: 103-105 WK)
  carcinogen call: inactive; negative
Species: RAT, Strain/Sex: F344/MALE, Route: ORAL, 125, 250 PPM IN DIET FOR 103 WK (STUDY DURATION: 103-105 WK), 125, 250 PPM IN DIET FOR 103 WK (STUDY DURATION: 103-105 WK)
  carcinogen call: inactive; negative
Species: Rat, Strain/Sex: Fischer 344 CD-F/Female (60/Group), Route: Oral, 10, 300, 1000 ppm of 96.1% fluometuron in diet for 2 yr, study duration 2 yr, 10, 300, 1000 ppm of 96.1% fluometuron in diet for 2 yr, study duration 2 yr
  carcinogen call: inactive; negative
Species: Rat, Strain/Sex: Fischer 344 CD-F/Male (60/Group), Route: Oral, 10, 300, 1000 ppm of 96.1% fluometuron in diet for 2 yr, study duration 2 yr, 10, 300, 1000 ppm of 96.1% fluometuron in diet for 2 yr, study duration 2 yr
  carcinogen call: inactive; negative

## CC(C)OC(=O)Nc1cccc(Cl)c1
Species: Mouse, Strain/Sex: CD-1/Female (50/group), Route: Oral, 100, 500, 1,000 mg/kg/day in diet for 18 mo, 100, 500, 1,000 mg/kg/day in diet for 18 mo
  carcinogen call: inactive; negative (study details not given in source; purity 96.2%)
Species: Mouse, Strain/Sex: CD-1/Male (50/group), Route: Oral, 100, 500, 1,000 mg/kg/day in diet for 18 mo, 100, 500, 1,000 mg/kg/day in diet for 18 mo
  carcinogen call: inactive; negative (study details not given in source; purity 96.2%)
Species: Rat, Strain/Sex: Sprague-Dawley/Female (50/group), Route: Oral, 30, 100, 500, 1,000 mg/kg/day in diet for 24 mo, 30, 100, 500, 1,000 mg/kg/day in diet for 24 mo
  carcinogen call: inactive; negative (study details not given in source; purity 96.2%)
Species: Rat, Strain/Sex: Sprague-Dawley/Male (50/group), Route: Oral, 30, 100, 500, 1,000 mg/kg/day in diet for 24 mo, 30, 100, 500, 1,000 mg/kg/day in diet for 24 mo, Tumor Site: Type of Lesion: Testis: Interstitial cell tumors (1, 4, 2, 4, 9; Significant at highest dose)
  carcinogen call: active; positive (study details not given in source; purity 96.2%)

## C=CC(=O)NCO
Species: MOUSE, Strain/Sex: B6C3F1/FEMALE, Route: GAVAGE, 25, 50 MG/KG IN DEIONIZED WATER 5 D/WK FOR 103 WK (STUDY DURATION: 105 WK), 25, 50 MG/KG IN DEIONIZED WATER 5 D/WK FOR 103 WK (STUDY DURATION: 105 WK), Tumor Site: Type of Lesion: HARDERIAN GLAND: ADENOMA, ADENOMA OR CARCINOMA, LIVER: HEPATOCELLULAR ADENOMA, HEPATOCELLULAR ADENOMA OR CARCINOMA, LUNG, Tumor Site: Type of Lesion: HARDERIAN GLAND: ADENOMA, ADENOMA OR CARCINOMA, LIVER: HEPATOCELLULAR ADENOMA, HEPATOCELLULAR ADENOMA OR CARCINOMA, LUNG
  carcinogen call: active; positive
Species: MOUSE, Strain/Sex: B6C3F1/MALE, Route: GAVAGE, 25, 50 MG/KG IN DEIONIZED WATER 5 D/WK FOR 103 WK (STUDY DURATION: 105 WK), 25, 50 MG/KG IN DEIONIZED WATER 5 D/WK FOR 103 WK (STUDY DURATION: 105 WK), Tumor Site: Type of Lesion: HARDERIAN GLAND: ADENOMA, ADENOMA OR CARCINOMA, LIVER: HEPATOCELLULAR ADENOMA, HEPATOCELLULAR CARCINOMA, LUNG: ALVEOLAR/, Tumor Site: Type of Lesion: HARDERIAN GLAND: ADENOMA, ADENOMA OR CARCINOMA, LIVER: HEPATOCELLULAR ADENOMA, HEPATOCELLULAR CARCINOMA, LUNG: ALVEOLAR/
  carcinogen call: active; positive
Species: RAT, Strain/Sex: F344/FEMALE, Route: GAVAGE, 6, 12 MG/KG IN DEIONIZED WATER 5 D/WK FOR 103 WK (STUDY DURATION: 105 WK), 6, 12 MG/KG IN DEIONIZED WATER 5 D/WK FOR 103 WK (STUDY DURATION: 105 WK)
  carcinogen call: inactive; negative
Species: RAT, Strain/Sex: F344/MALE, Route: GAVAGE, 6, 12 MG/KG IN DEIONIZED WATER 5 D/WK FOR 103 WK (STUDY DURATION: 105 WK), 6, 12 MG/KG IN DEIONIZED WATER 5 D/WK FOR 103 WK (STUDY DURATION: 105 WK)
  carcinogen call: inactive; negative

## NC(=O)N(CCCO)N=O
Species: RAT, Strain/Sex: F344/FEMALE, Route: GAVAGE, 8 MG/ML (TOTAL DOSE 0; 0.9 MMOL) IN 2 ML ETHYL ACETATE AND CORN OIL (1:2) 2/WK FOR 40 WK (STUDY DURATION: LIFETIME), 8 MG/ML (TOTAL DOSE 0; 0.9 MMOL) IN 2 ML ETHYL ACETATE AND CORN OIL (1:2) 2/WK FOR 40 WK (STUDY DURATION: LIFETIME), Tumor Site: Type of Lesion: THYROID: C-CELL TUMOR
  carcinogen call: active; positive
Species: RAT, Strain/Sex: F344/FEMALE, Route: GAVAGE, 8 MG/ML IN 0.2 ML ETHYL ACETATE AND CORN OIL 2/WK FOR 40 WK (STUDY DURATION: LIFESPAN), Tumor Site: Type of Lesion: THYROID: C-CELL TUMOR, UTERUS: TUMOR
  carcinogen call: active; positive
Species: RAT, Strain/Sex: F344/FEMALE, Route: GAVAGE, 16 MG/ML (TOTAL DOSE 0; 1.3 MMOL) IN 2 ML ETHYL ACETATE AND CORN OIL (1:2) 2/WK FOR 30 WK (STUDY DURATION: LIFETIME), 16 MG/ML (TOTAL DOSE 0; 1.3 MMOL) IN 2 ML ETHYL ACETATE AND CORN OIL (1:2) 2/WK FOR 30 WK (STUDY DURATION: LIFETIME)
  carcinogen call: inactive; negative
Species: RAT, Strain/Sex: F344/FEMALE, Route: GAVAGE, 16 MG/ML IN 0.2 ML ETHYL ACETATE AND CORN OIL 2/WK FOR 30 WK (STUDY DURATION: LIFESPAN), Tumor Site: Type of Lesion: LIVER: TUMOR, FORESTOMACH: TUMOR, THYROID: C-CELL TUMOR, UTERUS: TUMOR, DUODENUM: TUMOR, Tumor Site: Type of Lesion: LIVER: TUMOR, FORESTOMACH: TUMOR, THYROID: C-CELL TUMOR, UTERUS: TUMOR, DUODENUM: TUMOR
  carcinogen call: active; positive
Species: RAT, Strain/Sex: F344/MALE, Route: GAVAGE, 8 MG/ML (TOTAL DOSE 0; 0.9 MMOL) IN 2 ML ETHYL ACETATE AND CORN OIL (1:2) 2/WK FOR 40 WK (STUDY DURATION: LIFETIME), 8 MG/ML (TOTAL DOSE 0; 0.9 MMOL) IN 2 ML ETHYL ACETATE AND CORN OIL (1:2) 2/WK FOR 40 WK (STUDY DURATION: LIFETIME)
  carcinogen call: inactive; negative
Species: RAT, Strain/Sex: F344/MALE, Route: GAVAGE, 8 MG/ML IN 0.2 ML ETHYL ACETATE AND CORN OIL 2/WK FOR 40 WK (STUDY DURATION: LIFESPAN), Tumor Site: Type of Lesion: FORESTOMACH: TUMOR
  carcinogen call: active; positive
Species: RAT, Strain/Sex: F344/MALE, Route: GAVAGE, 16 MG/ML (TOTAL DOSE 0; 1.3 MMOL) IN 2 ML ETHYL ACETATE AND CORN OIL (1:2) 2/WK FOR 30 WK (STUDY DURATION: LIFETIME), 16 MG/ML (TOTAL DOSE 0; 1.3 MMOL) IN 2 ML ETHYL ACETATE AND CORN OIL (1:2) 2/WK FOR 30 WK (STUDY DURATION: LIFETIME)
  carcinogen call: inactive; negative
Species: RAT, Strain/Sex: F344/MALE, Route: GAVAGE, 16 MG/ML IN 0.2 ML ETHYL ACETATE AND CORN OIL 2/WK FOR 30 WK (STUDY DURATION: LIFESPAN), Tumor Site: Type of Lesion: LUNG: TUMOR, GLANDULAR STOMACH: TUMOR, SKIN: TUMOR, Tumor Site: Type of Lesion: LUNG: TUMOR, GLANDULAR STOMACH: TUMOR, SKIN: TUMOR
  carcinogen call: active; positive
